Assay results reported in patent US5549910A, “Preparation of liposome and lipid complex compositions” (priority 1994, dated 1996).
Counter-ions that a name gives are not always drawn. Like-named read-outs stand apart in the source and are kept apart here.

Experiments:
[1] = Solubility and solution stability; assay type: physicochemical
Description: Solutions of the polyene antibiotics amphotericin B (30 mM) and nystatin (50 mM) were prepared in DMSO. The primaricin aqueous suspension obtained from Sigma was lyophilized and resuspended in various solvents. […] The polyene antibiotics were combined with the various lipids in a solvent mixture of DMSO, DMSO:MP or DMSO:EtOH (7:3) and then injected into the aqueous phase. The preparations formed were transferred to a dialysis bag and dialyzed versus 100 volumes of distilled water, changed twice unless otherwise indicated. The ratio of the components, exact solvent mixtures and other conditions are given in the results. Samples of the preparations were dissolved in methanol and the polyene concentration determined spectrophotometrically (Szoka et al., supra): amphotericin B at 406 nm, nystatin at 306 nm and primaricin at 318 nm.

[2] = Acute mortality (death within 24 hours of drug administration) in immunosuppressed rabbits challenged with A. fumigatus; assay type: in vivo, rabbit; details: animals dead/total
Description: Liposomes were prepared with amphotericin B and cholesterol sulfate as described in Example 3. An immunosuppressive neutropenic rabbit model of invasive aspergillosis was used to compare the lipidic particle formulation with free amphotericin B.
Twenty-eight rabbits were immunosuppressed by administration of cyclophosphamide and triamcinolone. The rabbits were then challenged with 10^6 A. fumigatus. After 24 hours, the rabbits were divided into three treatment groups: eight rabbits received 4.5 mg/Kg/day free amphotericin B; four rabbits received 7.5 mg/Kg/day free amphotericin B; five rabbits received 6-9 mg/Kg/day amphotericin B lipidic particles (equivalent to 3-4.5 mg/Kg/day amphotericin B); three rabbits received 15 mg/Kg/day amphotericin B lipidic particles (equivalent to 7.5 mg/Kg/day amphotericin B); and eight rabbits were controls.
Treatment was continued for 30 days for the 4.5 mg/Kg free amphotericin B and 6-9 mg/Kg lipidic particle treatment groups.

A. fumigatus = assay: Immunosuppressive neutropenic rabbit model of invasive aspergillosis, organ cultures; assay type: in vivo, A. fumigatus (in rabbits); details: 30 days; Free AmpB 4.5 mg/Kg/day; Lipidic-AmpB 6-9 mg/Kg/day
Description: At the end of the treatment period, the animals were sacrificed, and the liver, kidneys, lung, and brain examined for viable Aspergillis by culturing the organs.

[3] = pH 7.4; cited from earlier work

With `CC(C)CCC[C@@H](C)[C@H]1CC[C@H]2[C@@H]3CC=C4C[C@@H](OC(=O)CCC(=O)O)CC[C@]4(C)[C@H]3CC[C@]12C` [Chems, cholesterol hemisuccinate] the “solubility in DMSO” value [1] was “soluble”.
For `CC(C)CCC[C@@H](C)[C@H]1CC[C@H]2[C@@H]3CC=C4C[C@@H](OS(=O)(=O)O)CC[C@]4(C)[C@H]3CC[C@]12C` [CholSO4, cholesterol sulfate], the “solubility in DMSO” value ([1]; DMSO) was “soluble”.
In the case of `CC(C)CCC[C@@H](C)[C@H]1CC[C@H]2[C@@H]3CC=C4C[C@@H](O)CC[C@]4(C)[C@H]3CC[C@]12C` [Cholesterol], the “solubility in 1-methyl-2-pyrrolidinone” value ([1]; 1-methyl-2-pyrrolidinone) is reported as “exceedingly soluble”.
In the case of `CC1/C=C/C=C/C=C/C=C/C=C/C=C/C=C/C(OC2OC(C)C(O)C(N)C2O)CC2OC(O)(CC(O)CC(O)C(O)CCC(O)CC(O)CC(=O)OC(C)C(C)C1O)CC(O)C2C(=O)O` (stereo not shown) [Free AmpB], the “Acute mortality (death within 24 hours)” value ([2]; 4.5 mg/Kg) is reported as 3/8, the “Acute mortality (death within 24 hours)” value ([2]; 7.5 mg/Kg) is reported as 4/4 and the “Organ Cultures (No. Sterile/Total), Kidney” value (A. fumigatus) is reported as 5/5. For the same compound, the “Organ Cultures (No. Sterile/Total), Liver” value (A. fumigatus) was 5/5 and the “Organ Cultures (No. Sterile/Total), Lung” value (A. fumigatus) was 3/5.
In the case of `CC1C/C=C/C=C/C=C/C=C/C(OC2OC(C)C(O)C(N)C2O)CC2OC(O)(CC(O)CC3OC3/C=C/C(=O)O1)CC(O)C2C(=O)O` (stereo not shown) [Primaricin], the “solubility in DMSO” value [1] is reported as “very soluble” and the “stability of solution in DMSO:MP” value [1] is reported as “stable yellow solution”.
For `COc1cccc2c1C(=O)c1c(O)c3c(c(O)c1C2=O)C[C@@](O)(C(=O)CO)C[C@@H]3O[C@H]1C[C@H](N)[C@H](O)[C@H](C)O1` [doxorubicin], the “solubility in DMSO” value ([1]; DMSO) is listed as “very soluble” and the aqueous solubility [3] is listed as “low aqueous solubility”.
In the case of cis-platinum, the “solubility in DMSO” value ([1]; DMSO) is reported as “exceedingly soluble”.
